Patent US20250276993A1, “PSEUDO-DISACCHARIDE COMPOUNDS” (UNIVERSITEIT LEIDEN, priority 2022, published 2025)

Tests used:
GUSB = molecular target: T1, GUSB (Homo sapiens, UniProt P08236); assay: cABPP Assay 2, platelet lysates, GUSB; type: biochemical; conditions: preincubation with inhibitor
T1 construct: Platelet lysates contain complex mixtures of overlapping enzyme activities, including both endo- and exo-β-glucuronidases HPSE and GUSB; endogenous in cells; host or cells: human platelet lysates
T1 sequence (P08236 23-651): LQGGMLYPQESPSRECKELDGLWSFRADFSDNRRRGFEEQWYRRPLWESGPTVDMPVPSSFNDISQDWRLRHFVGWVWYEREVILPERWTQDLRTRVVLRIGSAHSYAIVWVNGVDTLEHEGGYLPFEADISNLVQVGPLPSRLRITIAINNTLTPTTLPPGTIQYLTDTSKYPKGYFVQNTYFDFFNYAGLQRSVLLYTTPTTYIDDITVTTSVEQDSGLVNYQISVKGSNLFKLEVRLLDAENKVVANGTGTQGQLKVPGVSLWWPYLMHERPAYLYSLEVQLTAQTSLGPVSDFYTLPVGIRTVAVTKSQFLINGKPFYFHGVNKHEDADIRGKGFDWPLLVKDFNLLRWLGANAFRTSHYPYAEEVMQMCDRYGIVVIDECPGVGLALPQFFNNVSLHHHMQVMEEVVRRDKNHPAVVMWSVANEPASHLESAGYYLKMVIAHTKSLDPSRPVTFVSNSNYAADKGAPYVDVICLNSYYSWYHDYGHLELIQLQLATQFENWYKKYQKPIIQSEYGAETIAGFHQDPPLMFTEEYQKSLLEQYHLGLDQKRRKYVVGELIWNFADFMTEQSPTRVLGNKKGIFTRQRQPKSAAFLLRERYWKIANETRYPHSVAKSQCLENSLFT
Procedure: For further competitive ABPP studies, a working protein mixture was prepared by mixing the platelet lysates (87.5 μL), buffer (pH 5.0, 150 mM, 157.5 μL) and 3 M NaCl solution (35 μL). The enzymatic reactions were carried out at a constant concentration of read-out 7 (100 nM, final). For each inhibitor 2, 12 and 13, triplicate sets of ten 0.5 mL low protein binding Eppendorf tubes were prepared. Working solutions of each inhibitor (1% DMSO (w/v), 5 μL) in a range of ten concentrations (100, 50, 25, 12.5, 6.3, 3.1, 1.6, 0.8, 0.4, 0 μM) were prepared with MilliQ water and kept on ice. The working protein mixture (8 μL) was added in each protein low binding 0.5 mL Eppendorf tube, and 1 μL of inhibitor solution was added while on ice.
Further cABPP studies were undertaken using platelet lysates to provide a more physiologically realistic environment. Platelet lysates contain complex mixtures of overlapping enzyme activities, including both endo- and exo-β-glucuronidases HPSE and GUSB respectively, thus provide a challenging environment to test inhibitor specificity.

rHPSE = molecular target: T2, rHPSE (Homo sapiens, UniProt Q9Y251); assay: in-gel competitive ABPP, recombinant HPSE; type: biochemical; conditions: apparent IC50, in-gel competitive ABPP-based assay; read-out: In vitro IC50 rHPSE
T2 sequence (Q9Y251 36-109 limits assumed): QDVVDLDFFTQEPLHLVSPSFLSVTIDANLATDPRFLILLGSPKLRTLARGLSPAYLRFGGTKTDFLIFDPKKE
T2 sequence (Q9Y251 158-543 limits assumed): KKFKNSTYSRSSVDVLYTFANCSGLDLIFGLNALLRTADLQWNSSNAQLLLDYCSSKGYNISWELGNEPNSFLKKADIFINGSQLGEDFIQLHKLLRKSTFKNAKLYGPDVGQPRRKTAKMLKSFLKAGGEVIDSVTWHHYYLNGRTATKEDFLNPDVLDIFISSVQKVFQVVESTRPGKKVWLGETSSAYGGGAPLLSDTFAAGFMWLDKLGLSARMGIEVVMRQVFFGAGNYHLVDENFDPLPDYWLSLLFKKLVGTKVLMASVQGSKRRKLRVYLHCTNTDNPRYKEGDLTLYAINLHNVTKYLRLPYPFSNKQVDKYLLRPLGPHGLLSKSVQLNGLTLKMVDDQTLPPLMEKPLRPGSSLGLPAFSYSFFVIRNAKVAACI
Procedure: ABP labelling reactions were carried out in Mcllvaine buffer (pH 5.5), 300 mM NaCl. For recombinant proteins 200 fmol of EcGH2, BpHep, AcGH79, HPSE or proHPSE was used (20 nM in 10 μl final reaction volume). For labeling cell lysates, 4-20 μg total protein was used. Labeling reactions were initiated by the addition of ABP compounds 7, 8 or 9 to a final concentration of 100 nM (unless otherwise specified), before incubation for 30 min at 37° C. with shaking. Following labeling, samples were denatured by boiling with Laemmli buffer for 5 min and resolved by SDS-PAGE. Gels were scanned using Typhoon-5 laser scanner platform (Cytiva), using the λEX 635 nm laser and 670BP30 emission filter. For competitive ABPP (cABPP) experiments, protein mixtures were preincubated with inhibitor (or buffer only control) for 1 h at 37° C. with shaking, before the addition of 7 to a final concentration of 100 nM, and subsequent incubation for 30 min at 37° C. with shaking. SDS-PAGE and analysis steps were carried out as above. For quantitative measurements, fluorescently labeled band intensities were calculated using Imagequant (Cytiva), and normalized to the corresponding band in the inhibitor free control lane. cABPP plots were prepared and analyzed using SigmaPlot 14.0 (Systat).
Competitive activity of compounds 2, 12 and 13 were investigated using cABPP Assay 2.
To gain insight into HPSE structure-activity relationships, apparent HPSE inhibition was tested for cyclitol 12, its disaccharidic analogue 13 and parent HPSE inhibitor 2 (FIG. 7a). […] Conversely, 13 could inactivate rHPSE down to 2 μM inhibitor concentration similar to 2.

B16-BL6 melanoma cells = assay: B16 melanoma experimental lung metastasis model; type: in vivo, C57BL/J6 mice; conditions: after 14 days; 2: 300 nmol/mouse i.p.; SST0001: 150 μg/mouse i.p.; vs PBS-only control
Procedure: B16 melanoma—Twenty minutes before tumor cell inoculation, C57BL/J6 mice (n=5) were injected intraperitoneally with vehicle alone (PBS), compound 2 (300 nmol/mouse), or SST0001 (150 μg/mouse). Mice were subsequently intravenously inoculated with 1.5×10^5 B16-BL6 melanoma cells/mouse in a volume of 100 μL, alongside 20 μM 2 or 10 μg SST0001. Mice were sacrificed after 14 days and the lungs were dissected, photographed and evaluated for the number of metastatic foci/lung.
The compounds of the invention were tested against a B16 murine melanoma experimental metastasis model, which measures the formation of metastatic lung tumors by B16 cancer cells after intravenous (i.v.) injection. Additionally, the compounds of the invention were tested against a second cancer model—4T1 murine mammary carcinoma, which also metastasizes to the lungs upon injection.

HPSE = molecular target: T3, HPSE (Homo sapiens, UniProt Q9Y251); assay: cABPP Assay 1, recombinant HPSE; type: biochemical; conditions: 1 h preincubation at 37° C., pH 5.5, 100 nM ABP 7
T3 sequence (Q9Y251 36-109 limits assumed): T2 sequence (Q9Y251 36-109 limits assumed)
T3 sequence (Q9Y251 158-543 limits assumed): T2 sequence (Q9Y251 158-543 limits assumed)

effect on GUS signals (GUSB): without altering GUS signals | IC50 (rHPSE): 300 ± 200 nM
SMILES: CC(=O)NC1C(O)[C@H](O)C(CO)O[C@@H]1O[C@H]1C(O)C(O)[C@@H]2OC2C1C(=O)O (stereo partly drawn) [Compound 2, 4-O-(2-N-acetyl-2-deoxy-D-glucopyranosyl)-glucurono-cyclophellitol]
lung metastases (B16) (B16-BL6 melanoma cells): marked reduction in lung growths | HPSE inhibition (abrogation of labelling by ABP 7) (HPSE): inhibited HPSE at nanomolar concentrations
